The record followed here is US12065445B2, “CDK2 inhibitors and methods of using the same” (Cedilla Therapeutics, Inc., priority 2021, dated 2024).

The test system of assay [1] is Kuramochi cells. The assay is described as follows: BrdU Cell Proliferation Assay. The format is cell-based. As to conditions: read-out: BrdU - KURAMOCHI.1: IC50. The procedure, abridged:
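Signal is 450 nm absorbance from a peroxidase anti-BrdU ELISA after a 1-hour BrdU label, background-subtracted and normalized to DMSO-treated wells. Kuramochi cells (2,000 per well) had been exposed to compound for 4 days. Dosing used a 10-point dose response in 3-fold steps.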

The test system of assay [2] is Kuramochi cells labeled with mApple-H2B. Put plainly: IncuCyte Cell Proliferation Assay. Format: cell-based. As to conditions: 72 h. An outline of the steps:
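GI50 came from dose-response fits of cell-count fold change between 0 and 72 h, normalized to DMSO controls. Counts were fluorescent nuclei from live-cell images over a 10-point, ½ log series starting at 20 μM.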

Each structure is given as a SMILES string.

As a reminder, the IC50 is the point on the concentration scale where inhibition reaches its midpoint. On to `COC[C@H]1CCCN(C(=O)[C@@H](NC(=O)[C@@H]2CN(C(=O)c3cncs3)CC23CN(C(=O)[C@H]2CC2(C)C)C3)[C@@H](C)OCc2cccc(F)c2)C1` [I-322], for which the IC50 in assay [1] and in assay [2] was 0.5 to 5 µM throughout.

Take `COC[C@H]1CCCN(C(=O)CNC(=O)[C@@H]2CN(C(=O)c3cncs3)CC23CN(C(=O)[C@H]2CC2(C)C)C3)C1` [I-323]: the IC50 was over 10 µM in assay [1] and over 20 µM in assay [2].

In the case of `COC[C@H]1CCCN(C(=O)[C@@H](C)NC(=O)[C@@H]2CN(C(=O)c3cncs3)CC23CN(C(=O)[C@H]2CC2(C)C)C3)C1` [I-324], the IC50 in assay [1] was over 10 µM; in assay [2] it was over 20 µM.

On to `COC[C@H]1CCCN(C(=O)[C@H](C)NC(=O)[C@@H]2CN(C(=O)c3cncs3)CC23CN(C(=O)[C@H]2CC2(C)C)C3)C1` [I-325], for which the IC50 is over 10 µM in assay [1] and over 20 µM in assay [2].

Consider `C[C@@H](OCC1CCC(F)(F)CC1)[C@H](NC(=O)[C@@H]1CN(C(=O)c2cncs2)CC12CN(C(=O)[C@H]1CC1(C)C)C2)C(=O)N1CCC[C@H](COC(F)(F)F)C1` [I-326], for which the IC50 in assay [1] and in assay [2] was at most 0.5 µM in each case.

For the molecule `C[C@@H](OCC1CCCCC1)[C@H](NC(=O)[C@@H]1CN(C(=O)c2cncs2)CC12CN(C(=O)[C@H]1CC1(C)C)C2)C(=O)N1CCNCC1` [I-328], the IC50 in assay [1] and in assay [2] was 0.5 to 5 µM in each case.

With `C[C@@H](OCC12CCC(CC1)OC2)[C@H](NC(=O)[C@@H]1CN(C(=O)c2cncs2)CC12CN(C(=O)[C@H]1CC1(C)C)C2)C(=O)N1CCC2(CC1)COC2` [I-336], the IC50 in assay [1] is over 10 µM; in assay [2] it was 5 to 20 µM.

Regarding `C[C@@H](OCC1CCOCC1)[C@H](NC(=O)[C@@H]1CN(C(=O)c2cncs2)CC12CN(C(=O)C(C)(C)C1CC1)C2)C(C)(C)O` [I-341], the IC50 is over 10 µM in assay [1] and over 20 µM in assay [2].

Take `CNC(=O)[C@@H](NC(=O)[C@@H]1CN(C(=O)c2cncs2)CC12CN(C(=O)[C@H]1CC1(C)C)C2)[C@@H](C)OCC12CCC(CC1)OC2` [I-342]: the IC50 in assay [1] and in assay [2] was 0.5 to 5 µM each time.

On to `CNC(=O)[C@@H](NC(=O)[C@@H]1CN(C(=O)c2cncs2)CC12CN(CC1CCCC1)C2)[C@@H](C)OCC12CCC(CC1)OC2` [I-344, (S)—N-((2S,3R)-3-(2-oxabicyclo[2.2.2]octan-4-ylmethoxy)-1-(methylamino)-1-oxobutan-2-yl)-2-(cyclopentylmethyl)-6-(thiazole-5-carbonyl)-2,6-diazaspiro[3.4]octane-8-carboxamide], for which the IC50 is over 10 µM in assay [1] and over 20 µM in assay [2].

On to `CNC(=O)[C@@H](NC(=O)[C@@H]1CN(C(=O)c2cncs2)CC12CN(CC1CCOC1)C2)[C@@H](C)OCC12CCC(CC1)OC2` (stereo partly shown) [I-345], for which the IC50 in assay [1] was over 10 µM; in assay [2], over 20 µM.

Regarding `CNC(=O)[C@@H](NC(=O)[C@@H]1CN(C(=O)c2cncs2)CC12CN(C(=O)[C@H]1CC1(C)C)C2)[C@@H](C)OC[C@H]1CC[C@@H](C)CC1` [I-354], the IC50 in assay [1] is 0.5 to 5 µM; in assay [2], at most 0.5 µM.

Consider `CNC(=O)[C@@H](NC(=O)[C@@H]1CN(C(=O)c2cncs2)CC12CN(C(=O)[C@H]1CC1(C)C)C2)[C@@H](C)OCC1CCC2(CC1)CC2` [I-355], for which the half-maximal inhibitory concentration (IC50) was 0.5 to 5 µM in assay [1] and at most 0.5 µM in assay [2].

On to `CNC(=O)C(NC(=O)[C@@H]1CN(C(=O)c2cncs2)CC12CN(C(=O)[C@H]1CC1(C)C)C2)C(O)Cc1ccccc1` (stereo partly shown) [I-356], for which the IC50 was over 10 µM in assay [1] and over 20 µM in assay [2].

As for `C[C@@H](OC1(C2CCCCC2)CC1)[C@H](NC(=O)[C@@H]1CN(C(=O)c2cncs2)CC12CN(C(=O)[C@H]1CC1(C)C)C2)C(=O)N1CCCCC1` [I-357], the IC50 in assay [1] fell in the range of 5 to 10 µM; in assay [2] it was 5 to 20 µM.

On to `CNC(=O)[C@@H](NC(=O)[C@@H]1CN(C(=O)Cc2cn[nH]c2)CC12CN(C(=O)[C@H]1CC1(C)C)C2)[C@@H](C)OCc1ccccc1` [I-358], for which the IC50 in assay [1] is over 10 µM; in assay [2], over 20 µM.

Regarding `CC1(C)C[C@@H]1C(=O)N1CC2(CN(C(=O)c3cnn(Cc4ccccc4)c3)C[C@H]2C(=O)NCc2cccnn2)C1` [I-359], the IC50 in assay [1] was over 10 µM; in assay [2], over 20 µM.

Take `COC[C@H]1CCCN(C(=O)[C@@H](NC(=O)[C@@H]2CN(C(=O)c3cncs3)CC23CN(C(=O)[C@H]2CC2(C)C)C3)[C@@H](C)OC(C)C2CCC(F)(F)CC2)C1` (stereo partly shown) [I-360]: the 50% inhibitory concentration (IC50) in assay [1] and in assay [2] was 0.5 to 5 µM each time.

With `CC(O[C@H](C)[C@H](NC(=O)[C@@H]1CN(C(=O)c2cncs2)CC12CN(C(=O)[C@H]1CC1(C)C)C2)C(=O)N1CCC(F)(F)CC1)C1CCC(F)(F)CC1` (stereo partly shown) [I-361], the IC50 in assay [1] and in assay [2] was 0.5 to 5 µM throughout.

In the case of `CNC(=O)C(NC(=O)[C@@H]1CN(C(=O)c2cncs2)CC12CN(C(=O)[C@H]1CC1(C)C)C2)c1cccc(C2CCCCC2)n1` (stereo partly shown) [I-362], the figures for the IC50 in assay [1] and in assay [2] were 0.5 to 5 µM and 5 to 20 µM, respectively.

Consider `Cc1ccc(CNC(=O)[C@@H]2CN(C(=O)c3cnn(Cc4ccccc4)c3)CC23CN(C(=O)[C@H]2CC2(C)C)C3)cc1` [I-363], for which the results for the IC50 in assay [1] and in assay [2] were 5 to 10 µM and 5 to 20 µM, respectively.

Regarding `Cc1ccc(CNC(=O)[C@@H]2CN(C(=O)c3cnn(Cc4ccccc4)c3)CC23CN(C(=O)[C@H]2CC2(C)C)C3)cn1` [I-364], the IC50 in assay [1] was over 10 µM; in assay [2], 5 to 20 µM.

On to `Cc1ccc(CNC(=O)[C@@H]2CN(C(=O)c3cnn(Cc4ccccc4)c3)CC23CN(C(=O)[C@H]2CC2(C)C)C3)nc1` [I-365], for which the values for the IC50 in assay [1] and in assay [2] were over 10 µM and over 20 µM, respectively.

As to `Cc1ccc(C(C)NC(=O)[C@@H]2CN(C(=O)c3cnn(Cc4ccccc4)c3)CC23CN(C(=O)[C@H]2CC2(C)C)C3)nn1` (stereo partly shown) [I-366], the IC50 in assay [1] and in assay [2] was 0.5 to 5 µM throughout.

Consider `COC[C@H]1CCCN(C(=O)[C@@H](NC(=O)[C@@H]2CN(C(=O)c3cncs3)CC23CN(C(=O)[C@H]2CC2(C)C)C3)[C@@H](C)O[C@H](C)C2CCCCC2)C1` [I-367], for which the IC50 in assay [1] and in assay [2] was 0.5 to 5 µM throughout.

With `CNC(=O)[C@@H](NC(=O)[C@@H]1CN(C(=O)c2cnn(Cc3ccccc3)c2)CC12CN(C(=O)[C@H]1CC1(C)C)C2)[C@@H](C)SCc1ccccc1` [I-368], the IC50 in assay [1] was over 10 µM; in assay [2] it was 5 to 20 µM.

With `COC[C@H]1CCCN(C(=O)[C@@H](NC(=O)[C@@H]2CN(C(=O)c3cncs3)CC23CN(C(=O)[C@H]2CC2(C)C)C3)[C@@H](C)O[C@@H](C)C2CCCCC2)C1` [I-369], the half-maximal inhibitory concentration (IC50) in assay [1] and in assay [2] was 0.5 to 5 µM in each case.

Consider `CNC(=O)[C@@H](NC(=O)[C@@H]1CN(C(=O)c2cncs2)CC12CN(C(=O)[C@H]1CC1(C)C)C2)[C@@H](C)OCC1CCCC2(CC2)C1` (stereo partly shown) [I-370], for which the IC50 in assay [1] and in assay [2] was at most 0.5 µM each time.

In the case of `COc1ccc(CNC(=O)[C@@H]2CN(C(=O)c3cnn(Cc4ccccc4)c3)CC23CN(C(=O)[C@H]2CC2(C)C)C3)nn1` [I-371], the results for the IC50 in assay [1] and in assay [2] were over 10 µM and over 20 µM, respectively.

Regarding `CNC(=O)[C@@H](NC(=O)[C@@H]1CN(C(=O)c2cnn(Cc3ccccc3)c2)CC12CN(C(=O)[C@H]1CC1(C)C)C2)[C@@H](C)OCC1CCC(C)(C)CC1` [I-372], the IC50 in assay [1] and in assay [2] was at most 0.5 µM in each case.

As to `CNC(=O)[C@@H](NC(=O)[C@@H]1CN(C(=O)Cc2cnn(Cc3ccccc3)c2)CC12CN(C(=O)[C@H]1CC1(C)C)C2)[C@@H](C)OCc1ccccc1` [I-373], the half-inhibitory concentration (IC50) in assay [1] was over 10 µM; in assay [2], over 20 µM.

With `COC[C@H]1CCCN(C(=O)[C@@H](NC(=O)[C@@H]2CN(C(=O)c3cncs3)CC23CN(C(=O)[C@H]2CC2(C)C)C3)[C@@H](C)OC(C)C2CCCCC2)C1` (stereo partly shown) [I-374], the IC50 in assay [1] and in assay [2] was 0.5 to 5 µM throughout.

Regarding `CNC(=O)[C@@H](NC(=O)[C@@H]1CN(C(=O)c2cncs2)CC12CN(C(=O)[C@H]1CC1(C)C)C2)C1(OCc2ccccc2)CC1` [I-375], the half-maximal inhibitory concentration (IC50) in assay [1] is over 10 µM; in assay [2] it was over 20 µM.

For `CC1(C)C[C@@H]1C(=O)N1CC2(CN(C(=O)c3cnn(Cc4ccccc4)c3)C[C@H]2C(=O)NCc2ccc(Cl)nn2)C1` [I-376], the values for the IC50 in assay [1] and in assay [2] were over 10 µM and over 20 µM, respectively.

Consider `CC1(C)C[C@@H]1C(=O)N1CC2(CN(C(=O)c3cnn(Cc4ccccc4)c3)C[C@H]2C(=O)NCc2ccc(C3CCCCC3)nn2)C1` [I-377], for which the IC50 in assay [1] was over 10 µM; in assay [2], over 20 µM.

Turning to `Cc1ccc(CNC(=O)[C@@H]2CN(C(=O)c3cncs3)CC23CN(C(=O)[C@H]2CC2(C)C)C3)nn1` [I-378], the figures for the IC50 in assay [1] and in assay [2] were over 10 µM and over 20 µM, respectively.

On to `CNC(=O)[C@@H](NC(=O)[C@@H]1CN(C(=O)c2cncs2)CC12CN(C(=O)[C@H]1CC1(C)C)C2)[C@H](O)CC1CCCCC1` [I-379], for which the concentration for half-maximal inhibition (IC50) in assay [1] was over 10 µM; in assay [2], over 20 µM.

Consider `C[C@@H](OCC1CCC(F)(F)CC1)[C@H](NC(=O)[C@@H]1CN(C(=O)c2cncs2)CC12CN(C(=O)[C@H]1CC1(C)C)C2)C(=O)N1CCC2(CC1)CC2` [I-380], for which the IC50 in assay [1] and in assay [2] was at most 0.5 µM throughout.

As for `Cc1ccc(CNC(=O)[C@H]2CN(C(=O)c3cnn(Cc4ccccc4)c3)CC23CN(C(=O)[C@H]2CC2(C)C)C3)nn1` [I-381], the results for the IC50 in assay [1] and in assay [2] were over 10 µM and over 20 µM, respectively.

With `CC1(C)C[C@@H]1C(=O)N1CC2(CN(C(=O)c3cnn(Cc4ccccc4)c3)C[C@H]2C(=O)NC[C@H]2CC[C@H](C)CC2)C1` [I-382], the IC50 in assay [1] is over 10 µM; in assay [2], over 20 µM.

As to `C[C@@H](OCC1CCC(F)(F)CC1)[C@H](NC(=O)[C@@H]1CN(C(=O)c2cncs2)CC12CN(C(=O)[C@H]1CC1(C)C)C2)C(=O)N1CCC(O)CC1` [I-383], the half-maximal inhibitory concentration (IC50) lay in the range of 5 to 10 µM in assay [1] and 0.5 to 5 µM in assay [2].
